# Measurements as given in PubChem BioAssay (NCI).
#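 The compound was tested at five concentrations on cells cultured in 96-well plates, with a 48-hour exposure period. TGI: concentration producing complete growth inhibition.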
# How the values were obtained:
# Test in all cases: growth of human tumour cells (NCI), 48 h
# [1] = system: DLD-1 colon
# [2] = system: DMS 114 small cell lung
# [3] = system: DMS 273 small cell lung
# [4] = system: KM20L2 colon
# [5] = system: LXFL 529 NSCLC
# [6] = system: M19-MEL melanoma
# [7] = system: SNB-78 CNS
# [8] = system: XF 498 CNS
# [9] = system: HOP-18 NSCLC
# [10] = system: RXF-631 renal
SMILES,TGI [1] [µM],TGI [2] [µM],TGI [3] [µM],TGI [4] [µM],TGI [5] [µM],TGI [6] [µM],TGI [7] [µM],TGI [8] [µM],TGI [9] [µM],TGI [10] [µM]
O=C1c2cccc(O)c2C(=O)c2c(O)cccc21,> 100,> 100,> 100,> 100,> 100,24.3,> 100,> 100,,
Nc1nc(N)c2ncn(CCOC(c3ccccc3)P(=O)(O)O)c2n1 (stereo not drawn),> 100,> 100,> 100,> 100,,> 100,> 100,> 100,,
ClCC[N-]CC[N-]CCCl.ClCC[N-]CC[N-]CCCl.[O-][Cl+3]([O-])([O-])O.[Zn+2],35,> 55.8,> 60.2,> 100,35.9,> 57.1,> 76.6,,56.5,
C[n+]1c2ccccc2c(CNCC(=O)O)c2ccccc21,2,4.83,2.74,2.44,3.15,16.5,44.3,3.85,22.6,
O=C(Nc1ccc(Cl)cc1)c1cc([N+](=O)[O-])ccc1O,> 100,6.75,20,> 50.9,16.8,23.5,,8.72,7.16,> 45.7
CSc1ccc(NC(=O)C2c3[nH]c4ccccc4c3C3CCC(C(C)(C)C)CC3C2C(=O)O)cc1 (stereo not drawn),54.6,63.4,30,32.6,31.8,57.3,53.2,39.7,35.9,
CC1=NN2C(c3ccc([N+](=O)[O-])cc3)=CSC2=NC(C)(C)C1,> 100,> 100,> 100,> 100,> 100,> 100,> 100,> 100,> 100,> 100
Cc1c2ccncc2c(C)c2c1[nH]c1ccc(Oc3ccccc3)cc12,,3.35,3.07,3.36,4.28,,6.68,3.61,30.4,
C[C@]12CC[C@H](O)CC1=CC[C@@H]1C2CC[C@]2(C)C(=O)NC(=O)CC12 (stereo partly drawn),> 100,> 100,> 100,> 100,> 100,> 100,> 100,> 100,> 100,> 100
COC(=O)CC(C(C(=O)OC)C(=O)OC)N1C(=O)OC(c2ccccc2)C1c1ccccc1 (stereo not drawn),> 100,> 100,> 100,> 100,> 100,> 100,,,> 100,
COc1cc2c(oc(=O)c3cc4cc([Si](C)(C)C)oc4c(OC)c32)c2cccc(O)c12,> 100,> 100,> 100,> 100,> 100,> 100,> 100,> 100,> 100,
CCN(CC)C(=S)SCC(=O)Nc1nc2c(s1)CCCC2,> 100,> 100,> 100,> 100,> 100,> 100,> 100,> 100,,
COc1ccc(OC)c(NC(=O)C(=O)CC(=O)c2sc(-n3nc(-c4ccccc4)cc3-c3ccccc3)nc2C)c1,> 100,> 100,> 100,> 100,> 100,> 100,> 100,,,> 100
C=CCCCN1CCCC(C)C1=S (stereo not drawn),> 100,> 100,> 100,> 100,,> 100,,> 100,> 100,> 100
CC1(C)Cc2c(oc3ncnc(N)c23)CS1,> 100,> 100,> 100,> 100,> 100,> 100,> 100,> 100,,> 100
CC(C)(C)[C@H]1CO[C@]2(c3ccccc3)[C@@H]3C[C@@H]3C(=O)N12,> 100,> 100,> 100,> 100,> 100,> 100,,> 100,,
